Consider one molecule from patent US20250241898A1, “Topical Benzimidazole Formulations and Methods for Use in Treating Inflammatory Dermatoses” (JJR&D, LLC, priority 2022, published 2025).

SMILES strings stand for the structures.

For this assay, the system named is CTLL-2 (ATCC TIB-214) cytotoxic T lymphocytes. The assay is described as follows: In vitro screening platform for immunomodulation, CTLL-2 T-lymphocyte density. It counts as cell-based. The protocol:
An in vitro screening platform for immunomodulation was used to evaluate mebenzadole for efficacy. CTLL-2 (ATCC® TIB-214™) are cytotoxic T lymphocytes that were purchased and cultured according to ATCC protocol. […] The maximum volume added to the 1 mL of each of the 12 wells was 10 μL for the highest test concentration of mebenzadole and the control.

Consider `COC(=O)Nc1nc2ccc(C(=O)c3ccccc3)cc2[nH]1` [mebendazole, methyl 5-benzoylbenzimidazole-2-carbamate], for which the “effect on T-lymphocytes (FIG. 1)” value (CTLL-2 cell culture, 1 nM to 1 μM) is “dose dependently kill T-lymphocytes”. Also, for the setting “CTLL-2 cell culture, mebendazole in DMSO, 1 nM, 5 nM, 500 nM and 1 μM tested vs DMSO control”, the “test concentration at which significant reduction of T-lymphocytes starts” value turned out to be 1 nM. The “concentration at which significant reduction of CD+8 T cells starts, as mass concentration” value (in DMSO, equivalent given for 1 nM) is 0.295 μg per mL.
